Source: ChEMBL document CHEMBL4808216, “Gut-Restricted Selective Cyclooxygenase-2 (COX-2) Inhibitors for Chemoprevention of Colorectal Cancer” (J Med Chem, 2021)

Assays:
[1] = Half life in mouse liver microsomes; assay type: ADME, Microsome
[2] = Oral bioavailability in C57BL/6J mouse at 10 mg/kg measured up to 24 hrs by LC-MS analysis; assay type: ADME, organism-based; details: in vivo
Mus musculus = test: Antitumor activity in po dosed C57BL/6J mouse model of spontaneous GI-tract tumor Apc-min assessed as reduction in total ileum polyp area administered as suspension for 10 to 12 weeks; assay type: functional, organism-based; details: time 10-12 weeks
[3] = biological target: T1, Prostaglandin G/H synthase 2 (Homo sapiens, UniProt P35354); test: Inhibition of human recombinant COX-2 assessed as reduction in peroxidase activity using arachidonic acid as substrate preincubated for 60 mins followed by substrate addition for 2 secs by ADPH based fluorometric analysis
T1 sequence (P35354 whole entry): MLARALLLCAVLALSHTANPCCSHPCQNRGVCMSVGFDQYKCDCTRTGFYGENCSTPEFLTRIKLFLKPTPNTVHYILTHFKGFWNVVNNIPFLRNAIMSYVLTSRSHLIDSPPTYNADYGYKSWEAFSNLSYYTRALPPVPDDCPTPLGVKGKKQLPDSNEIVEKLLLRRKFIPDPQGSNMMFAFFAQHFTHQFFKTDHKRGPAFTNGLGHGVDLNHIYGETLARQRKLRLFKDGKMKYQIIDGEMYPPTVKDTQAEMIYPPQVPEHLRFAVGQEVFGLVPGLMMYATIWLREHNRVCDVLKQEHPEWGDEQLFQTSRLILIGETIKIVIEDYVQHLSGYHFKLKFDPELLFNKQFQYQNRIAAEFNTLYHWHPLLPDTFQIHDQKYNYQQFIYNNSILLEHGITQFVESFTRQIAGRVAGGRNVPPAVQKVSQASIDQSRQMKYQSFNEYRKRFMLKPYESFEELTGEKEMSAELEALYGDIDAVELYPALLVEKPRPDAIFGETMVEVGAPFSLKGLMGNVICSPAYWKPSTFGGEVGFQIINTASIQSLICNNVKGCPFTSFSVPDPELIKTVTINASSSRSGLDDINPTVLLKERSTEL

[4] = Drug concentration in C57BL/6J mouse portal vein plasma at 10 mg/kg, po administered as cassette dose measured at 4 hrs by LC/MS/MS analysis; assay type: ADME, organism-based
[5] = biological target: T2, Prostaglandin G/H synthase 2 (Homo sapiens) (UniProt P35354)
T2 sequence (whole entry): T1 sequence (P35354 whole entry)
Description: Protein occupancy at human recombinant COX-2 assessed as dissociation half life

[6] = Ratio of drug concentration in C57BL/6J mouse colon to plasma at 10 mg/kg, po measured after 4 hr by liquid chromatographic triple-quadrupole mass spectrometric method; assay type: ADME, organism-based; details: C57BL/6J, colon / plasma
[7] = Protein binding in human plasma assessed as unbound fraction; assay type: ADME, cell-free
[8] = biological target: T3, Prostaglandin G/H synthase 2 (Mus musculus, UniProt Q05769); test: In vivo inhibition of COX2 in po dosed C57BL/6J mouse model of spontaneous GI-tract tumor Apc-min assessed as chemopreventive effect by measuring reduction in polyp area and relevant ileum exposures; assay type: functional, organism-based
T3 sequence (Q05769 whole entry): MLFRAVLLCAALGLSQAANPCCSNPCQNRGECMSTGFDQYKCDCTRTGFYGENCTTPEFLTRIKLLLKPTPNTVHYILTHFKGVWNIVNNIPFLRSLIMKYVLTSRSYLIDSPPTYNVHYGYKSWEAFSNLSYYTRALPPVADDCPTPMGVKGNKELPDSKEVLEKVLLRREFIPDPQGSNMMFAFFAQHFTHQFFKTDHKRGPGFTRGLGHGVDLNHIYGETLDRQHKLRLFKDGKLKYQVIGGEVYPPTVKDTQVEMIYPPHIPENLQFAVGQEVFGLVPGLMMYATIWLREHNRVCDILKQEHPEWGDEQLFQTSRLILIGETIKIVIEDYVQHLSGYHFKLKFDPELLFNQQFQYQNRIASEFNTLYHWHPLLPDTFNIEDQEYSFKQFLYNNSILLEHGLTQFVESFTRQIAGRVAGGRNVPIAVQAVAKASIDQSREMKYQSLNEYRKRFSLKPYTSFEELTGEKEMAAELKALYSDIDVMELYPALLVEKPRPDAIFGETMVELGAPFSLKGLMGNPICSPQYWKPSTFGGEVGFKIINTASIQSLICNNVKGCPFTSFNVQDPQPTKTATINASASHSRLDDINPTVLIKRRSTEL

in vivo = details: C57BL/6J, mouse, colon / portal vein plasma, po, 10 mg/kg
Description: Ratio of drug concentration in C57BL/6J mouse colon to portal vein plasma at 10 mg/kg, po measured after 4 hr by liquid chromatographic triple-quadrupole mass spectrometric method

[9] = biological target: T4, Prostaglandin G/H synthase 1 (Homo sapiens, UniProt P23219); test: Inhibition of COX1 (unknown origin) expressed in HEK293 TRex cells assessed as reduction in PGE2 production using arachidonic acid as substrate preincubated for 60 mins followed by substrate addition for 1 hr in presence of 10% FBS by RapidFire High-Throughput Mass Spectrometry; assay type: ADME, cell-based, HEK293-T-REx
[10] = biological target: T4, Prostaglandin G/H synthase 1; test: Inhibition of COX1 in human whole blood assessed as reduction in calcium ionophore-stimulated TXB2 production incubated for 1 hr by ELISA; assay type: tissue-based

T4 sequence (P23219 whole entry): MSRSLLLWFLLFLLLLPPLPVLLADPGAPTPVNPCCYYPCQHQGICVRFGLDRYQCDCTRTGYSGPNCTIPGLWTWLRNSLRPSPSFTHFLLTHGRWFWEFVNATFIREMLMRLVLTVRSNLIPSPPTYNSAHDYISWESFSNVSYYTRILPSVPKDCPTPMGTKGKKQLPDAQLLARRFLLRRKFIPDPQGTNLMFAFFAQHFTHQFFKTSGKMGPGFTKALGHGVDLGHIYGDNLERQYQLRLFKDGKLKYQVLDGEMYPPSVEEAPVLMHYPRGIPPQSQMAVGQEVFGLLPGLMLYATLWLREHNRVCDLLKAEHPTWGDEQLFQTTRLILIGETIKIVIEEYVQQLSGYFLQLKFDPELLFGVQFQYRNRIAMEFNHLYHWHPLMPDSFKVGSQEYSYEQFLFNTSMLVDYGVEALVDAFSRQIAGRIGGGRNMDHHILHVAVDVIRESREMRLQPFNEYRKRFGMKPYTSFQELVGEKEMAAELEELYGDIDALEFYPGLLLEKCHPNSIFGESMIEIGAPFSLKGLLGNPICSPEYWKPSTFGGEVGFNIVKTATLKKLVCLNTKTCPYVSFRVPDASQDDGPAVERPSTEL

Q: With `CCCOc1nc(OCC(C)(C)O)c(-c2ccc(S(C)(=O)=O)cc2)cc1CO` as the compound, how does the half-life [1] read?
A: 0.327 h

Q: What about the bioavailability [2] of the same compound?
A: 4.25%

Q: And the Activity (Mus musculus)?
A: Dose-Dependent Effect

Q: What about the IC50 [3] of the same compound?
A: 0.84 µM

Q: And the concentration at 4 h [4]?
A: 98.6 ng/mL

Q: What about the T1/2 [5] of the same compound?
A: 8.9 h

Q: What about the Kp at 4 h [6] of the same compound?
A: 1280

Q: What about the fraction unbound [7] of the same compound?
A: 0.016

Q: What about the IC50 [8] of the same compound?
A: 2.38 µM

Q: What about the Kp at 4 h (in vivo) of the same compound?
A: 38

Q: And the IC50 [9]?
A: > 50 µM

Q: And the IC50 [10]?
A: 193 µM
